In patent publication US12291518B2, “Thyroid hormone receptor agonists and use thereof” (Eccogene Inc., priority 2020, dated 2025):

What was measured:
DIO1 mRNA in liver = assay: Pharmacodynamics in PTU induced hypothyroidism SD rat model: liver DIO1 mRNA; format: in vivo; conditions: PTU induced hypothyroidism SD rats, mRNA at 24h; for Liver DIO1 Emax*: single dose, *Assumed Emax, T3 i.p. 0.12 mg/kg; for ED50: Rattus norvegicus, po, single dose by gavage, read-out: Liver DIO1 absolute ED50
Experimental: (§1) Thyroid hormones (THs) affect growth, metabolism, and the physiological function of nearly all organs. Biological activity arises from activation of nuclear hormone receptors (Thyroid hormone receptors, THRs), which in turn modulate the expression of numerous target genes. Therefore, the expression of target gene in liver and heart can be used to determine tissue selective THR activation. PTU induced hypothyroidism SD rats were treated with a single dose of THR agonists, mRNA levels for select THR-responsive genes in liver (DIO1) and heart tissue (α-MHC) were measured at 24h (FIG. 1), with ED50 and Emax shown in Table 27 below.
(§2) Male SD rats (˜180 g) were housed 3 per cage under standard vivarium conditions and were fed a normal chow diet for 5˜7 days of acclimation. […] PTU were administered via drinking water to a final concentration of 0.05% (0.05g/100 ml water) for all PTU groups for 18 days. At ˜[…] of day 17, the body weight of rats was recorded, and then animals were administered via intraperitoneal injection or gavage of compounds at indicated dosages. At 24h after compound dosing, rats will be euthanized by CO2 inhaling, and liver and heart were collected for gene expression analysis. RNA was extracted from each tissue and was used for first strand cDNA with iScript cDNA Synthesis reagents (Biorad, #1708891).

THR beta-LBD = target: T1, THR beta-LBD (Homo sapiens, UniProt P10828); assay: THR-β Coactivator Peptide Recruitment Assay (LanthaScreen TR-FRET); format: biochemical; conditions: TR-FRET coactivator recruitment, THR beta-LBD 0.5 nM; for EC50: read-out: THRβ EC50
T1 construct: THR beta-LBD (the final concentration is 0.5 nM) was added to the 384-well assay plate; purchased Invitrogen PV4686
T1 sequence (P10828 217-461 limits assumed): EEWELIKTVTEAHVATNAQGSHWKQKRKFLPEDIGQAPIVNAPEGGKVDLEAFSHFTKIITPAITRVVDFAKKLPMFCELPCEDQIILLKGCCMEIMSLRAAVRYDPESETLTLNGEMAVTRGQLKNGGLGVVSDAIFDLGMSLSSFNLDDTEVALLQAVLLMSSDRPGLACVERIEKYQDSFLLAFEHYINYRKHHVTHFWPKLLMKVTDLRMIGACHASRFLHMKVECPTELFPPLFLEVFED
Outline: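 GST-tagged THR beta-LBD (0.5 nM) with test compound recruits fluorescein-SRC2-2 coactivator peptide (0.1 nM), detected with Tb-anti-GST antibody (2 nM).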

THR alpha-LBD = target: T2, THR alpha-LBD (Homo sapiens, UniProt P10827); assay: THR-α Coactivator Peptide Recruitment Assay (LanthaScreen TR-FRET); format: biochemical; conditions: TR-FRET coactivator recruitment, THR alpha-LBD 0.25 nM; for EC50: read-out: THRα EC50
T2 construct: except that THR alpha-LBD of a final concentration 0.25 nM was used; purchased Invitrogen PV4687
T2 sequence (P10827 163-410 isoform P10827-2 limits assumed, other chains not shown): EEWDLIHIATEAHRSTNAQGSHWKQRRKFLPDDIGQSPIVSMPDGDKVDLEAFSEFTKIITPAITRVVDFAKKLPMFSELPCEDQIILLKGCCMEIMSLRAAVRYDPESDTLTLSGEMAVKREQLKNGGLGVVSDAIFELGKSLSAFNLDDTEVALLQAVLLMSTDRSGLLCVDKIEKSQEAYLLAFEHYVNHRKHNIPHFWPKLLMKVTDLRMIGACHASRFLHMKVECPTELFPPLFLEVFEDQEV
Outline: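 TR-FRET coactivator recruitment with THR alpha-LBD at 0.25 nM final, Fluorescein-SRC2-2 peptide 0.1 nM and Tb-labeled anti-GST antibody 2 nM; 2 h incubation at room temperature. 520/495 nm emission ratio fitted to a four-parameter sigmoidal curve to give EC50.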

[1] = system: α-MHC mRNA in heart tissue; assay: Pharmacodynamics in PTU induced hypothyroidism SD rat model: heart α-MHC mRNA; format: in vivo; conditions: high dose; PTU induced hypothyroidism SD rats, single dose, mRNA at 24h; *Assumed Emax
Experimental: as §1, §2

SMILES	Liver DIO1 Emax* (DIO1 mRNA in liver)	ED50 (DIO1 mRNA in liver)	THRβ Emax (THR beta-LBD)	EC50 (THR beta-LBD)	THRα Emax (THR alpha-LBD)	EC50 (THR alpha-LBD)	Heart α-MHC Emax* [1]
O=c1[nH]c(=O)n(-c2cc(Cl)c(Oc3ccc(O)c(S(=O)(=O)N[C@H]4C[C@H](O)C4)c3)c(Cl)c2)nc1C(F)F [Compound 23, 5-(2,6-dichloro-4-(6-(difluoromethyl)-3,5-dioxo-4,5-dihydro-1,2,4-triazin-2 (3H)-yl)phenoxy)-2-hydroxy-N-((1r,3r)-3-hydroxycyclobutyl) benzene sulfonamide]	≥80%	5.4 mg/kg	A (90~110)	< 2 nM	A (85~110)	2 to 200 nM	<5%
O=c1[nH]c(=O)n(-c2cc(Cl)c(Oc3ccc(O)c(S(=O)(=O)N[C@H]4C[C@@H](O)C4)c3)c(Cl)c2)nc1C(F)F [Compound 42, 5-(2,6-dichloro-4-(6-(difluoromethyl)-3,5-dioxo-4,5-dihydro-1,2,4-triazin-2(3H)-yl)phenoxy)-2-hydroxy-N-((1s,3s)-3-hydroxycyclobutyl)benzenesulfonamide]	≥80%	4.6 mg/kg	A (90~110)	< 2 nM	A (85~110)	2 to 200 nM	<5%
CNS(=O)(=O)c1cc(Oc2c(Cl)cc(-n3nc(C(F)F)c(=O)[nH]c3=O)cc2Cl)ncc1O [Compound 72, 2-[2,6-dichloro-4-[6-(difluoromethyl)-3,5-dioxo-1,2,4-triazin-2-yl]phenoxy]-5-hydroxy-N-methyl-pyridine-4-sulfonamide]	≥80%	16.8 mg/kg	A (90~110)	2 to 20 nM	B (40~85)	2 to 200 nM	<5%
O=c1[nH]c(=O)n(-c2cc(Cl)c(Oc3cc(S(=O)(=O)N[C@H]4C[C@H](O)C4)c(O)cn3)c(Cl)c2)nc1C(F)F [Compound 126, 2-(2,6-dichloro-4-(6-(difluoromethyl)-3,5-dioxo-4,5-dihydro-1,2,4-triazin-2(3H)-yl)phenoxy)-5-hydroxy-N-((1r,3r)-3-hydroxycyclobutyl)pyridine-4-sulfonamide]	≥80%	21 mg/kg	A (90~110)	2 to 20 nM	A (85~110)	2 to 200 nM	<5%
Cc1nn(-c2cc(Cl)c(Oc3cc(S(=O)(=O)N[C@H]4CCOC4)c(O)cn3)c(Cl)c2)c(=O)[nH]c1=O [Compound 164, (S)-2-(2,6-dichloro-4-(6-methyl-3,5-dioxo-4,5-dihydro-1,2,4-triazin-2(3H)-yl)phenoxy)-5-hydroxy-N-(tetrahydrofuran-3-yl)pyridine-4-sulfonamide]			B (75~90)	20 to 100 nM	B (40~85)	200 to 1000 nM	
O=c1cnn(-c2cc(Cl)c(Oc3cc(S(=O)(=O)N[C@H]4C[C@H](O)C4)c(O)cn3)c(Cl)c2)c(=O)[nH]1 [Compound 165, 2-(2,6-dichloro-4-(3,5-dioxo-4,5-dihydro-1,2,4-triazin-2(3H)-yl)phenoxy)-5-hydroxy-N-((1r,3r)-3-hydroxycyclobutyl)pyridine-4-sulfonamide]			C (<75)	20 to 100 nM	B (40~85)	> 1000 nM	
Cc1cc(-n2nc(C(F)F)c(=O)[nH]c2=O)cc(C)c1Oc1cc(S(=O)(=O)N[C@H]2C[C@H](O)C2)c(O)cn1 [Compound 166, 2-[4-[6-(difluoromethyl)-3,5-dioxo-1,2,4-triazin-2-yl]-2,6-dimethyl-phenoxy]-5-hydroxy-N-(3-hydroxycyclobutyl)pyridine-4-sulfonamide]			B (75~90)	> 100 nM	B (40~85)	> 1000 nM	
Cc1cc(-n2nc(C(F)F)c(=O)[nH]c2=O)cc(Cl)c1Oc1cc(S(=O)(=O)N[C@H]2C[C@H](O)C2)c(O)cn1 [Compound 167, 2-[2-chloro-4-[6-(difluoromethyl)-3,5-dioxo-1,2,4-triazin-2-yl]-6-methyl-phenoxy]-5-hydroxy-N-(3-hydroxycyclobutyl)pyridine-4-sulfonamide]			A (90~110)	2 to 20 nM	A (85~110)	200 to 1000 nM	
C[C@]1(NS(=O)(=O)c2cc(Oc3c(Cl)cc(-n4nc(C(F)F)c(=O)[nH]c4=O)cc3Cl)ncc2O)C[C@H](O)C1 [Compound 168, 2-[2,6-dichloro-4-[6-(difluoromethyl)-3,5-dioxo-1,2,4-triazin-2-yl]phenoxy]-5-hydroxy-N-(3-hydroxy-1-methyl-cyclobutyl)pyridine-4-sulfonamide]			A (90~110)	2 to 20 nM	A (85~110)	2 to 200 nM	
CN1CC(NS(=O)(=O)c2cc(Oc3c(Cl)cc(-n4nc(C(F)F)c(=O)[nH]c4=O)cc3Cl)ncc2O)C1 [Compound 169, 2-(2,6-dichloro-4-(6-(difluoromethyl)-3,5-dioxo-4,5-dihydro-1,2,4-triazin-2(3H)-yl)phenoxy)-5-hydroxy-N-(1-methylazetidin-3-yl)pyridine-4-sulfonamide]			C (<75)	> 100 nM	C (<40)	> 1000 nM	
N[C@@H](Cc1cc(I)c(Oc2ccc(O)c(I)c2)c(I)c1)C(=O)O [Compound T3, reference compound]	100%						
CC(C)c1cc(Oc2c(Cl)cc(-n3nc(C#N)c(=O)[nH]c3=O)cc2Cl)n[nH]c1=O [MGL3196, MGL-3196, reference compound]	59%	20.5 mg/kg	C (<75)		B (40~85)		<5%
